# From paper PMC6044507 (ACS Omega, 2018)
# Legend:
# human GPR84 [1] = target: T1, human GPR84 (Homo sapiens, UniProt Q9NQS5); test: cell-based; assay type: cell-based; details: for percent receptor activation at 10 μM, cAMP assay: compound 10 μM; for percent receptor activation at 10 μM, cAMP assay / EC50: forskolin 10 μM; for EC50: CHO cells expressing human GPR84; for Emax: read-out: efficacy (Emax), cAMP assay
# Target sequence in this assay (Q9NQS5 whole entry): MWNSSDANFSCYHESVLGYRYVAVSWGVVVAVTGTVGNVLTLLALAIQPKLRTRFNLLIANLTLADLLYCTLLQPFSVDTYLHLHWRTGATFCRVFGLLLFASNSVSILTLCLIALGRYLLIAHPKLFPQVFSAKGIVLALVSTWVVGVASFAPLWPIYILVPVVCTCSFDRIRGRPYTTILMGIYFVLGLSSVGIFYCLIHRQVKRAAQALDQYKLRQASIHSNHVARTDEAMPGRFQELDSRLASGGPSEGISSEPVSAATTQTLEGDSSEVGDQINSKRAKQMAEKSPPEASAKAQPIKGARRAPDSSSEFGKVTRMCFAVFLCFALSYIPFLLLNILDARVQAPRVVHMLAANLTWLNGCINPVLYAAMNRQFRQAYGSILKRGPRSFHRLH
# [2] = metabolic stability in human liver microsomes; assay type: in vitro ADME; details: human microsomes, 30 min
# human GPR84 [3] = target: T1, human GPR84; test: cell-based; details: EC50 ± SEM, β-arrestin assay, CHO cells expressing human GPR84
# Target sequence in this assay (Q9NQS5 whole entry): as above
# Target sequence in this assay (P32121 whole entry partner): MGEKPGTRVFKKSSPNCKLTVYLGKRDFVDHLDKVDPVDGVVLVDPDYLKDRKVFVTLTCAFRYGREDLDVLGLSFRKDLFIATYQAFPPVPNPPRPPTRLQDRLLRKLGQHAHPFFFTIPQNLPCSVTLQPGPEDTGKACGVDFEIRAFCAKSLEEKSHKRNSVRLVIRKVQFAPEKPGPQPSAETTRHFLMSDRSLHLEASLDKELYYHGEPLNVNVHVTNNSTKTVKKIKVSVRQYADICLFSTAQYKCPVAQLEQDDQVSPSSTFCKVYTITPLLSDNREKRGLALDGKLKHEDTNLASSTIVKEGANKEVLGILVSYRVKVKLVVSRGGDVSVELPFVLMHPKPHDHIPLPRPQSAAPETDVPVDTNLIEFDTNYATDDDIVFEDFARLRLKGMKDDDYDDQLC
"percent receptor activation at 10 μM, cAMP assay (human GPR84 [1])","EC50 (human GPR84 [1]; EC50 ± SEM, cAMP assay)",Emax (human GPR84 [1]),SMILES,also measured
14%,,,"CCCCC(CC)CNc1cc(=O)[nH]c(=O)[nH]1 (racemic) [Compound 24, N^6-(R,S)-(2-ethyl)hexyluracil]","agonistic activity at GPR84 in cAMP assay, in words (human GPR84 [1]): abolished activity"
,,,"CCCCCCSc1nc(O)cc(O)n1 [2-hexylthiopyrimidine-4,6-diol (5), 2-hexylthiopyrimidine-4,6-diol, reference compound]",drug disappeared after 30 min of incubation [2]: ~40%
15%,,,CCNc1cc(=O)[nH]c(=O)[nH]1 [Compound 13],"agonistic activity at GPR84 in cAMP assay, in words (human GPR84 [1]): inactive"
−9%,,,CCCNc1cc(=O)[nH]c(=O)[nH]1 [Compound 14],"agonistic activity at GPR84 in cAMP assay, in words (human GPR84 [1]): inactive"
11%,,,CC(C)CNc1cc(=O)[nH]c(=O)[nH]1 [Compound 15],
4%,,,CC(C)(C)CNc1cc(=O)[nH]c(=O)[nH]1 [Compound 16],
14%,,,CC(C)CCNc1cc(=O)[nH]c(=O)[nH]1 [Compound 17],
18%,,,CC(C)(C)CCNc1cc(=O)[nH]c(=O)[nH]1 [Compound 18],
,460 ± 130 nM,106%,"CCCCCNc1cc(=O)[nH]c(=O)[nH]1 [Compound 19, 6-Pentylamino-2,4(1H,3H)-pyrimidinedione]",EC50 (human GPR84 [3]): 4800 ± 1300 nM
,12 ± 6 nM,113%,"CCCCCCCNc1cc(=O)[nH]c(=O)[nH]1 [Compound 21, 6-Heptylamino-2,4(1H,3H)-pyrimidinedione]",
,,109%,"CCCCCCCCCCNc1cc(=O)[nH]c(=O)[nH]1 [Compound 23, 6-Decylamino-2,4(1H,3H)-pyrimidinedione]",
,5900 ± 2600 nM,99%,CC(C)CCCCCNc1cc(=O)[nH]c(=O)[nH]1 [Compound 25],
,23000 ± 3000 nM,100%,"CSCCCNc1cc(=O)[nH]c(=O)[nH]1 [Compound 26, N^6-Methylthiopropyluracil]",
51 ± 8%,,,O=c1cc(NCCCCCCO)[nH]c(=O)[nH]1 [Compound 27],
,,105%,"O=c1cc(NCCCCCCCO)[nH]c(=O)[nH]1 [Compound 28, 6-(7-Hydroxyheptylamino)-2,4(1H,3H)-pyrimidinedione]","EC50 (human GPR84 [1]; EC50, cAMP assay): 1980 nM; EC50 (human GPR84 [3]): 2100 ± 600 nM"
25%,,,O=C(O)CCCCCNc1cc(=O)[nH]c(=O)[nH]1 [Compound 29],
13%,,,O=C(O)CCCCCCCNc1cc(=O)[nH]c(=O)[nH]1 [Compound 30],
,2000 ± 500 nM,74%,"CCCCCCCCCNc1cc(=O)n(C)c(=O)[nH]1 [Compound 32, 6-Nonylamino-3-methyl-2,4(1H,3H)-pyrimidinedione]",
32%,,,CCCCCCNc1cc(=O)[nH]c(=O)n1C [Compound 34],
34%,,,CCCCCCCCNc1cc(=O)[nH]c(=O)n1C [Compound 35],
25%,,,CCCCCCCCNc1cc(=O)n(C)c(=O)n1C [Compound 36],"agonistic activity at GPR84 in cAMP assay, in words (human GPR84 [1]): virtually abolished potency"
,110 ± 40 nM,106%,"CCCCCCN(C)c1cc(=O)[nH]c(=O)[nH]1 [Compound 37, 6-(N-Methylhexylamino)-2,4(1H,3H)-pyrimidinedione]",
,,107%,"CCCCCCCCN(C)c1cc(=O)[nH]c(=O)[nH]1 [Compound 38, 6-(N-Methyloctylamino)-2,4(1H,3H)-pyrimidinedione]",EC50 (human GPR84 [3]): 640 ± 20 nM
6%,,,CCCCCCCCNc1c[nH]c(=O)[nH]c1=O [Compound 39],"agonistic activity at GPR84 in cAMP assay, in words (human GPR84 [1]): completely inactive"
12%,,,O=c1cc(NCc2ccccc2)[nH]c(=O)[nH]1 [Compound 40],"agonistic activity at GPR84 in cAMP assay, in words (human GPR84 [1]): inactive"
23%,,,O=c1cc(NCc2cccc3ccccc23)[nH]c(=O)[nH]1 [Compound 41],"agonistic activity at GPR84 in cAMP assay, in words (human GPR84 [1]): inactive"
,1700 ± 600 nM,120%,"O=c1cc(NCCCc2ccccc2)[nH]c(=O)[nH]1 [Compound 43, 6-(3-Phenylpropylamino)-2,4(1H,3H)-pyrimidinedione]",
,24 ± 10 nM,108%,"Oc1cc(NCCCCc2ccccc2)nc(O)n1 [Compound 44, 6-(4-Phenylbutylamino)-2,4(1H,3H)-pyrimidinedione]",

"percent receptor activation at 10 μM, cAMP assay (human GPR84 [1])","EC50 (human GPR84 [1]; EC50 ± SEM, cAMP assay)",Emax (human GPR84 [1]),SMILES,also measured
,13 ± 1 nM,114%,"Cc1ccc(CCNc2cc(=O)[nH]c(=O)[nH]2)cc1 [Compound 45, 6-(p-Methylphenylethylamino)-2,4(1H,3H)-pyrimidinedione]",EC50 (human GPR84 [3]): 320 ± 150 nM
,65 ± 14 nM,111%,"O=c1cc(NCCc2ccc(F)cc2)[nH]c(=O)[nH]1 [Compound 46, 6-(p-Fluorophenylethylamino)-2,4(1H,3H)-pyrimidinedione]",EC50 (human GPR84 [3]): 2000 ± 800 nM
,57 ± 21 nM,111%,"COc1ccc(CCNc2cc(=O)[nH]c(=O)[nH]2)cc1 [Compound 50, 6-(p-Methoxyphenylethylamino)-2,4(1H,3H)-pyrimidinedione]",EC50 (human GPR84 [3]): 760 ± 370 nM
,79 ± 25 nM,134%,"Cc1cccc(CCNc2cc(=O)[nH]c(=O)[nH]2)c1 [Compound 52, 6-(m-Methylphenylethylamino)-2,4(1H,3H)-pyrimidinedione]",EC50 (human GPR84 [3]): 780 ± 220 nM
,,136%,"O=c1cc(NCCc2cccc(F)c2)[nH]c(=O)[nH]1 [Compound 53, 6-(m-Fluorophenylethylamino)-2,4(1H,3H)-pyrimidinedione]",
,130 ± 10 nM,125%,"O=c1cc(NCCc2cccc(Cl)c2)[nH]c(=O)[nH]1 [Compound 54, 6-(m-Chlorophenylethylamino)-2,4(1H,3H)-pyrimidinedione]",EC50 (human GPR84 [3]): 300 ± 100 nM
,64 ± 5 nM,147%,"O=c1cc(NCCc2cccc(Br)c2)[nH]c(=O)[nH]1 [Compound 55, 6-(m-Bromophenylethylamino)-2,4(1H,3H)-pyrimidinedione]",EC50 (human GPR84 [3]): 190 ± 30 nM
,3200 ± 100 nM,96%,"Cc1ccccc1CCNc1cc(=O)[nH]c(=O)[nH]1 [Compound 56, 6-(o-Methylphenylethylamino)-2,4(1H,3H)-pyrimidinedione]",
,100 ± 20 nM,122%,"O=c1cc(NCCc2ccccc2Cl)[nH]c(=O)[nH]1 [Compound 58, 6-(o-Chlorophenylethylamino)-2,4(1H,3H)-pyrimidinedione]",EC50 (human GPR84 [3]): 1300 ± 100 nM
19%,,,O=c1cc(NCCc2ccccc2Br)[nH]c(=O)[nH]1 [Compound 59],
,44 ± 4 nM,113%,"O=c1cc(NCCc2ccc(Cl)cc2Cl)[nH]c(=O)[nH]1 [Compound 61, 6-(o,p-Dichlorophenethylamino)-2,4(1H,3H)-pyrimidinedione]",EC50 (human GPR84 [3]): 82 ± 35 nM
,,112%,"O=c1cc(NCCc2cccs2)[nH]c(=O)[nH]1 [Compound 63, 6-(Thiophen-2-yl)ethylamino-2,4(1H,3H)-pyrimidinedione]",
,100 ± 50 nM,113%,"O=c1cc(NCCOc2ccccc2)[nH]c(=O)[nH]1 [Compound 64, 6-(2-Phenoxyethylamino)-2,4(1H,3H)-pyrimidinedione]",EC50 (human GPR84 [3]): 730 ± 130 nM
,73 ± 5 nM,107%,"O=c1cc(NCCCOc2ccccc2)[nH]c(=O)[nH]1 [Compound 65, 6-(3-Phenoxypropylamino)-2,4(1H,3H)-pyrimidinedione]",
13%,,,O=c1cc(N2CCC(c3ccccc3)CC2)[nH]c(=O)[nH]1 [Compound 66],"agonistic activity at GPR84 in cAMP assay, in words (human GPR84 [1]): inactive"
,130 ± 10 nM,114%,"O=c1cc(N2CCC(Cc3ccccc3)CC2)[nH]c(=O)[nH]1 [Compound 67, 6-(4-Benzylpiperidin-1yl)-2,4(1H,3H)-pyrimidinedione]",EC50 (human GPR84 [3]): 600 ± 160 nM
,,117%,"O=c1cc(N2CCN(c3ccc(Cl)cc3)CC2)[nH]c(=O)[nH]1 [Compound 68, 6-[4-(p-Chlorophenyl)-1-piperazinyl]-2,4(1H,3H)-pyrimidinedione]",EC50 (human GPR84 [3]): 1800 ± 200 nM
,38 ± 7 nM,53%,COc1ccccc1N1CCN(c2cc(=O)[nH]c(=O)[nH]2)CC1 [Compound 69],
,150 ± 40 nM,137%,"O=c1cc(N2CCN(Cc3cccc4ccccc34)CC2)[nH]c(=O)[nH]1 [Compound 71, 6-[4-(1-Naphthylmethyl)-1-piperazinyl]-2,4(1H,3H)-pyrimidinedione]",
,7400 ± 1600 nM,123%,CCCCCCNc1[nH]c(=O)[nH]c(=O)c1Br [Compound 72],
,2000 ± 600 nM,114%,"CCCCCCCCNc1[nH]c(=O)[nH]c(=O)c1Br [Compound 73, 5-Bromo-6-octylamino-2,4(1H,3H)-pyrimidinedione]",
,,114%,"O=c1[nH]c(NCCc2ccc(Br)cc2)c(Br)c(=O)[nH]1 [Compound 74, 5-Bromo-6-(p-bromophenylethylamino)-2,4(1H,3H)-pyrimidinedione]",EC50 (human GPR84 [3]): 6700 ± 1800 nM
15%,,,O=c1[nH]c(NCCCc2ccccc2)c(Br)c(=O)[nH]1 [Compound 75],
,7700 ± 500 nM,120%,CCCCCCNc1[nH]c(=O)[nH]c(=O)c1N=O [Compound 76],
,500 ± 50 nM,104%,"CCCCCCCNc1[nH]c(=O)[nH]c(=O)c1N=O [Compound 77, 6-Heptylamino-5-nitroso-2,4(1H,3H)-pyrimidinedione]",
32%,,,O=Nc1c(NCCc2ccccc2)[nH]c(=O)[nH]c1=O [Compound 79],
7%,,,"COc1ccccc1N1CCN(CCCNc2cc(=O)n(C)c(=O)n2C)CC1 [urapidil, reference compound]",
